Patent publication US10590113B2, “6-hydroxy-4-oxo-1,4-dihydropyrimidine-5-carboxamides as APJ agonists” (priority 2016, dated 2020)

biological target: T1, human APJ receptor (Homo sapiens, UniProt P35414); test: Intracellular cAMP Accumulation Assay (APJ hcAMP, HTRF); type: cell-based; conditions: HEK293 cells stably expressing human APJ receptor; inhibition of forskolin-mediated cAMP production; read-out: Human APJ cAMP EC50 potency range
T1 construct: expressed in transfected cells; host or cells: HEK293
T1 sequence (P35414 1-380): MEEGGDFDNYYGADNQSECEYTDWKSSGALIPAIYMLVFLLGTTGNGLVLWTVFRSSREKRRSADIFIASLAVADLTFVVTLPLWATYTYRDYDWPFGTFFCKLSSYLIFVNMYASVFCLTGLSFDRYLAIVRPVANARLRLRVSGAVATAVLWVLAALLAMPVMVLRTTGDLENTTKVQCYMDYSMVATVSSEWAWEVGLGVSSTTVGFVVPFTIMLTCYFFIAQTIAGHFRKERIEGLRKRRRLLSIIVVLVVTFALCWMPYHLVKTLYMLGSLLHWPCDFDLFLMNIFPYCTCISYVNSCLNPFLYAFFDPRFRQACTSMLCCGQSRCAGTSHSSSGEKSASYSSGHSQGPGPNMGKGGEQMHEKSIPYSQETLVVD
Procedure, shortened: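 Stably transfected HEK293 cells (5,000/well) incubated 30 min at room temperature with serially diluted compound, […] and 2 μM forskolin. cAMP measured by HTRF after 60 min with detection reagents, quantified against a cAMP standard curve; EC50 from variable-slope sigmoidal fit of inhibition of forskolin-stimulated cAMP.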

Work on COc1cccc(OC)c1-n1c(CCC2CC2)nc(=O)c(C(=O)N2CC[C@@H](c3ccccc3)C2)c1O [Example 4, (S)-2-(2-Cyclopropylethyl)-1-(2,6-dimethoxyphenyl)-6-hydroxy-5-(3-phenylpyrrolidine-1-carbonyl)pyrimidin-4(1H)-one] yielded an EC50 of 0.01 to 10 nM.

same assay, conditions: human APJ, cAMP accumulation; potency range class; read-out: hAPJ cAMP EC50 Potency range

CC[C@@H](c1ccccc1)n1c(-c2nc(C)cs2)nc(=O)c(C(=O)N2CCC(c3ncc(Cl)cc3F)C2)c1O (single isomer, unassigned) [Example 323] and CCn1ccc(-c2nc(=O)c(C(=O)N3CCC(c4ncc(Cl)cc4F)C3)c(O)n2[C@H](c2cc(F)cc(F)c2)C(C)C)n1 (single isomer, unassigned) [Example 326] fall in the same range of EC50: 0.01 to 10 nM for the first, 0.01 to 10 nM for the second.

COc1cccc(OC)c1-n1c(-c2cccc(C)n2)nc(=O)c(C(=O)N2CCC(c3ccccc3F)C2)c1O (single isomer, unassigned) [Example 236, 1-(2,6-dimethoxyphenyl)-5-[3-(2-fluorophenyl)pyrrolidine-1-carbonyl]-6-hydroxy-2-(6-methylpyridin-2-yl)-1,4-dihydropyrimidin-4-one] and CCn1ccc(-c2nc(=O)c(C(=O)N3CC[C@@H](c4ccccc4)C3)c(O)n2-c2c(OC)cccc2OC)n1 [Example 286, 1-(2,6-dimethoxyphenyl)-2-(1-ethyl-1H-pyrazol-3-yl)-6-hydroxy-5-[(3S)-3-phenylpyrrolidine-1-carbonyl]-1,4-dihydropyrimidin-4-one] fall in the same range of EC50: 0.01 to 10 nM for the first, 0.01 to 10 nM for the second.

CCc1cccc(CC)c1-n1c(-c2ccn(C(C)C)n2)nc(=O)c(C(=O)N2CCC(c3ncccc3F)C2)c1O (single isomer, unassigned) [Example 292, 1-(2,6-diethylphenyl)-5-[3-(3-fluoropyridin-2-yl)pyrrolidine-1-carbonyl]-6-hydroxy-2-[1-(propan-2-yl)-1H-pyrazol-3-yl]-1,4-dihydropyrimidin-4-one] and CCc1cccc(CC)c1-n1c(-c2csc(C(C)C)n2)nc(=O)c(C(=O)N2CCC(c3ccc(F)cn3)C2)c1O (single isomer, unassigned) [Example 300, 1-(2,6-diethylphenyl)-5-[3-(5-fluoropyridin-2-yl)pyrrolidine-1-carbonyl]-6-hydroxy-2-[2-(propan-2-yl)-1,3-thiazol-4-yl]-1,4-dihydropyrimidin-4-one] fall in the same range of EC50: 0.01 to 10 nM for the first, 0.01 to 10 nM for the second.

First: CCc1cccc(CC)c1-n1c(-c2ccn(CC(C)C)n2)nc(=O)c(C(=O)N2CC[C@@H](c3ccccc3)C2)c1O [Example 317, 1-(2,6-diethylphenyl)-6-hydroxy-2-[1-(2-methylpropyl)-1H-pyrazol-3-yl]-5-[(3S)-3-phenylpyrrolidine-1-carbonyl]-1,4-dihydropyrimidin-4-one]
Second: CCc1cccc(CC)c1-n1c(-c2ccn(C3CC3)n2)nc(=O)c(C(=O)N2CC[C@@H](c3ccccc3)C2)c1O [Example 316, 2-(1-cyclopropyl-1H-pyrazol-3-yl)-1-(2,6-diethylphenyl)-6-hydroxy-5-[(3S)-3-phenylpyrrolidine-1-carbonyl]-1,4-dihydropyrimidin-4-one]
The EC50 of the first is higher: 10 to 100 nM for the first, 0.01 to 10 nM for the second.

First: COc1cccc(OC)c1-n1c(-c2ccc(F)cc2)nc(=O)c(C(=O)N2CCC(c3ccc(Cl)cc3)C2)c1O (single isomer, unassigned) [Example 223]
Second: CCCCc1nc(=O)c(C(=O)N2CCC(c3ncc(F)cc3F)C2)c(O)n1-c1c(OC)cccc1OC (single isomer, unassigned) [Example 359, 2-butyl-5-(3-(3,5-difluoropyridin-2-yl)pyrrolidine-1-carbonyl)-1-(2,6-dimethoxyphenyl)-6-hydroxypyrimidin-4(1H)-one]
The EC50 of the first is higher: 10 to 100 nM for the first, 0.01 to 10 nM for the second. The second is the more potent here.

same assay, conditions: human APJ, intracellular cAMP accumulation; read-out: hAPJ cAMP EC50 Potency range

Compared with CCCCc1nc(=O)c(C(=O)N2CC[C@H](OCc3ccccc3)C2)c(O)n1-c1c(OC)cccc1OC [Example 63, 5-[(3S)-3-(benzyloxy)pyrrolidine-1-carbonyl]-2-butyl-1-(2,6-dimethoxyphenyl)-6-hydroxy-1,4-dihydropyrimidin-4-one], CCCCc1nc(=O)c(C(=O)N2CC[C@@H](NC(=O)OCc3ccccc3)C2)c(O)n1-c1c(OC)cccc1OC [Example 62, benzyl N-[(3R)-1-[2-butyl-1-(2,6-dimethoxyphenyl)-6-hydroxy-4-oxo-1,4-dihydropyrimidine-5-carbonyl]pyrro1idin-3-yl]carbamate] is higher in EC50: 0.01 to 10 nM for the first, 10 to 100 nM for the second. The first is the more potent here.

Compared with CCCCc1nc(=O)c(C(=O)N2CCC(c3ccc(F)cc3)C2)c(O)n1-c1c(OC)cccc1OC (single isomer, unassigned) [Example 77, 2-butyl-1-(2,6-dimethoxyphenyl)-5-[3-(4-fluorophenyl)pyrrolidine-1-carbonyl]-6-hydroxy-1,4-dihydropyrimidin-4-one], CCCCc1nc(=O)c(C(=O)N2Cc3cccnc3C2)c(O)n1-c1c(OC)cccc1OC [Example 61, 2-butyl-1-(2,6-dimethoxyphenyl)-6-hydroxy-5-{5H,6H,7H-pyrrolo[3,4-b]pyridine-6-carbonyl}-1,4-dihydropyrimidin-4-one] is higher in EC50: 0.01 to 10 nM for the first, 10 to 100 nM for the second. The first is the more potent here.

First: CCCCc1nc(=O)c(C(=O)N2CC[C@H](c3ccccc3)C2)c(O)n1C(C)c1ccncc1 (stereo partly drawn) [Example 148, 2-butyl-6-hydroxy-5-[(3R)-3-phenylpyrrolidine-1-carbonyl]-3-[1-(pyridin-4-yl)ethyl]3,4-dihydropyrimidin-4-one]
Second: CCCCc1nc(=O)c(C(=O)N2CC[C@H](c3ccccc3)C2)c(O)n1[C@@H](C)c1ccc(F)cc1 [Example 157, 2-butyl-3-[(1S)-1-(4-fluorophenyl)ethyl]-6-hydroxy-5-[(3R)-3-phenylpyrrolidine-1-carbonyl]-3,4-dihydropyrimidin-4-one]
The EC50 of the first is lower: 10 to 100 nM for the first, 100 to 300 nM for the second.

First: CCCCc1nc(=O)c(C(=O)N2CC[C@@H](c3ccccc3)C2)c(O)n1-c1c(OC)ncnc1OC [Example 112, 2-butyl-3-(4,6-dimethoxypyrimidin-5-yl)-6-hydroxy-5-[(3S)-3-phenylpyrrolidine-1-carbonyl]-3,4-dihydropyrimidin-4-one]
Second: CCCCc1nc(=O)c(C(=O)N2CC[C@H](c3ccccc3)C2)c(O)n1[C@H](COC)c1ccccc1 [Example 152, 2-butyl-6-hydroxy-3-[(1S)-2-methoxy-1-phenylethyl]-5-[(3R)-3-phenylpyrrolidine-1-carbonyl]-3,4-dihydropyrimidin-4-one]
The EC50 of the first is lower: 0.01 to 10 nM for the first, 10 to 100 nM for the second. The first is the more potent here.

CC[C@@H](c1cc(F)cc(F)c1)n1c(-c2nc(C)cs2)nc(=O)c(C(=O)N2CCC(c3ccccc3OC)C2)c1O (single isomer, unassigned) [Example 207] and CC[C@@H](c1cc(F)cc(F)c1)n1c(-c2cnn(C)c2)nc(=O)c(C(=O)N2CCC(c3ccccc3F)C2)c1O (single isomer, unassigned) [Example 196] fall in the same range of EC50: 0.01 to 10 nM for the first, 0.01 to 10 nM for the second.

First: CCCCc1nc(=O)c(C(=O)N2CCC(c3ccccc3F)C2)c(O)n1[C@@H](CC)c1ccccc1 (stereo partly drawn) [Example 114, 2-butyl-5-[3-(2-fluorophenyl)pyrrolidine-1-carbonyl]-6-hydroxy-3-[(1S)-1-phenylpropyl]-3,4-dihydropyrimidin-4-one]
Second: CCCCc1nc(=O)c(C(=O)N2CC[C@H](c3ccccc3)C2)c(O)n1[C@@H](C)c1cccc(C#N)c1 [Example 138, 3-[(1S)-1-{2-butyl-4-hydroxy-6-oxo-5-[(3R)-3-phenylpyrrolidine-1-carbonyl]-1,6-dihydropyrimidin-1-yl}ethyl]benzonitrile]
The EC50 of the first is lower: 0.01 to 10 nM for the first, 10 to 100 nM for the second.

CC[C@@H](c1cc(F)cc(F)c1)n1c(-c2ccn(C)n2)nc(=O)c(C(=O)N2CCC(c3ncc(F)cc3F)C2)c1O (single isomer, unassigned) [Example 184] and COc1cccc(OC)c1-n1c(CCC2CC2)nc(=O)c(C(=O)N2CCC(c3ncc(Cl)cc3F)C2)c1O (single isomer, unassigned) [Example 176, 5-[3-(5-chloro-3-fluoropyridin-2-yl)pyrrolidine-1-carbonyl]-2-(2-cyclopropylethyl)-1-(2,6-dimethoxyphenyl)-6-hydroxy-1,4-dihydropyrimidin-4-one] fall in the same range of EC50: 0.01 to 10 nM for the first, 0.01 to 10 nM for the second.

COc1cccc(OC)c1-n1c(CCC2CC2)nc(=O)c(C(=O)N2CCC(c3ncccc3F)C2)c1O (single isomer, unassigned) [Example 178, 2-(2-cyclopropylethyl)-1-(2,6-dimethoxyphenyl)-5-[3-(3-fluoropyridin-2-yl)pyrrolidine-1-carbonyl]-6-hydroxy-1,4-dihydropyrimidin-4-one] and COc1cccc(OC)c1-n1c(COC(C)C)nc(=O)c(C(=O)N2CCC(c3ccccc3C)C2)c1O (single isomer, unassigned) [Example 105, 1-(2,6-dimethoxyphenyl)-6-hydroxy-5-[3-(2-methylphenyl)pyrrolidine-1-carbonyl]-2-[(propan-2-yloxy)methyl]-1,4-dihydropyrimidin-4-one] fall in the same range of EC50: 0.01 to 10 nM for the first, 0.01 to 10 nM for the second.

same assay, conditions: read-out: hAPJ cAMP EC50 Potency range

For CCCCc1nc(=O)c(C(=O)N2CCC(Oc3cccc(F)c3F)CC2)c(O)n1-c1c(OC)cccc1OC [Example 387, 2-butyl-5-(4-(2,3-difluorophenoxy)piperidine-1-carbonyl)-1-(2,6-dimethoxyphenyl)-6-hydroxypyrimidin-4(1H)-one], the EC50 was 0.01 to 10 nM.
